From patent publication US20230107941A1, “HEPATITIS B CAPSID ASSEMBLY MODULATORS” (Venatorx Pharmaceuticals, Inc., priority 2019, published 2023)
Where two headings read alike, the source gives them in different places.

Assays:
[1] = In vitro cytotoxicity assay (MTT cell viability) in HepG2 cells; assay type: cell-based, human; conditions: human
Procedure: To evaluate antiviral selectivity, the cytotoxic activity of each compound was determined using a standard cell viability assay performed on the parental HepG2 cell line. Cell viability was determined by measuring the conversion of 3-(4,5-dimethylthiazol-2-yl)-2,5-diphenyltetrazolium bromide (MTT) to the insoluble formazan salt crystal that occurs in live cells. Briefly, HepG2 cells were seeded in 96-well plates at a density of 20,000 cells per well in […] (complete growth medium) and allowed to adhere overnight in a 37° C., […] humidified incubator. The next day, test agents were prepared by performing 8 half-log10 serial dilutions in 100% DMSO at 200× the final desired concentration in the assay. Compounds were tested over a range of concentrations from 30 μM to 1.0 nM in the assay. HepG2 cells were incubated in the presence of various concentrations of CAMs for 7 days in a 37° C., […] humidified incubator. At the completion of the 7-day incubation period, MTT reagent was added to each well and the mixture was incubated for an additional 3-4 hours. At the completion of the incubation period, all wells were aspirated to remove the culture medium. The formazan crystals were solubilized from the cell monolayers with 100% DMSO. Plates were briefly mixed on an orbital shaker and absorbance was measured at 492 nm using a Perkin-Elmer EnVision multi-label plate reader. All absorbance values were converted to a percentage of the signal obtained from the vehicle treated controls. Absorbance values at 492 nm are directly proportional to the number of viable cells present in the sample. A CC50 value (cytotoxic concentration that results in loss of 50% cell viability) was calculated from the dose-response curve by 4-parameter, non-linear regression analysis using the GraphPad Prism software. The positive control compound, staurosporine, reduced the viability of HepG2 cells in a dose-dependent manner (CC50=100 nM).

HBV = assay: In vitro antiviral assay: anti-HBV replication in HepAD38 cells (extracellular HBV DNA by QPCR); assay type: cell-based, hepatitis B virus (genotype D, serotype ayw); conditions: Hepatitis B virus
Procedure: The anti-HBV activity of the Capsid Assembly Modulators (CAMs) was evaluated in a cell based assay utilizing the human hepatoma cell line HepAD38 (Ladner, S K., et al., 1998). HepAD38 cells were derived from the parental line, HepG2, that were stably transfected with a construct containing an HBV genome (genotype D, serotype ayw) under the control of a tetracycline repressible CMV promoter. Upon removal of tetracycline, viral pre-genomic RNA (pgRNA) and mRNAs are expressed and infectious viral particles are assembled and secreted into the culture medium providing a reliable, robust system to measure multiple steps of the HBV life cycle. Disruption of capsid formation results in reduced levels of DNA-containing virus particles that are released into the culture supernatant. To quantify the effect of CAMs on HBV replication, we developed a sensitive QPCR-based assay that measures extracellular HBV DNA levels upon treatment of HepAD38 cells with various concentrations of test compounds.
HepAD38 cells were maintained in DMEM/F12 medium containing 10% FBS, 400 μg/mL G418 and 0.3 μg/mL tetracycline (tet+ media) to maintain repression of HBV replication. To evaluate each compound, HepAD38 cells were seeded into 24-well collagen coated culture plates (Corning BioCoat) at a density of 200,000 cells per well in 1 mL of medium without tetracycline (tet-media) and allowed to adhere overnight at 37° C., 5% CO2 in a humidified incubator. The following day, media was refreshed and a dose range of each compound was prepared by performing 1 log10 serial dilutions in 100% DMSO at 200× the desired assay concentration. Dilutions were then added to the cells resulting in a final dose range of 1 μM to 10 pM and the plates were returned to the incubator. Following 7 days of incubation, culture supernatants were harvested and HBV DNA levels were evaluated by QPCR and compared to the vehicle treated control wells (i.e. DMSO alone).
To quantify HBV DNA levels, cell culture supernatants were diluted 1:10 in sterile, nuclease-free water (Gibco). The diluted supernatants were subsequently added to a PCR master mix containing 1× Roche Light Cycler Master Mix, 0.5 μM forward primer, 0.5 μM reverse primer (Fwd: 5′-[…] (SEQ ID NO 1); Rev: 5′-[…] (SEQ ID NO 2)), 0.2 μM Roche Universal Probe Library Probe 25. The volume was brought to 20 μL with nuclease-free water and amplification of the HBV target sequence was performed using a Roche LightCycler 480 QPCR instrument. PCR extended out to 45 cycles with each cycle consisting of a denaturation step at 95° C. for 10 sec., followed by an annealing step at 60° C. for 10 sec. and a brief extension step at 72° C. for 1 sec.
Extracellular HBV DNA levels, expressed in copies/mL, were determined by comparison to a standard curve (10^2-10^9 copies/mL) using the Roche LightCycler analysis software. These values were subsequently converted to percent inhibition of HBV replication by dividing the HBV DNA levels in the experimental samples with those obtained from the vehicle control (˜1-2×10^5 copies/mL). Potency, expressed as an EC50 (the effective concentration required to inhibit 50% of HBV replication), was calculated from the dose-response curve using a 4-parameter non-linear regression analysis (GraphPad Prism). The nucleoside analog inhibitor entecavir was used as a positive control to validate each assay run. The EC50 value of entecavir in the HepAD38 assay was 0.5 nM, as previously reported in the literature.

[2] = HePAD38, 168 h, 7 days incubation, extracellular HBV DNA by QPCR, read-out: Anti-HBV EC50

Structure (SMILES)	CC50 at 7 days [1] [nM]	EC50 (HBV; [2]) [nM]	CC50 at 7 days ([1]; positive control, HepG2 cells, MTT, read-out: CC50 (viability of HepG2 cells)) [nM]	EC50 (HBV; HePAD38, positive control, read-out: EC50 in the HepAD38 assay) [nM]
Cc1cc(NC(=O)c2c(C)c(C(=O)C(=O)NC3(CO)CCN(C(=O)c4ccnn4C)CC3)n(C)c2C)ccc1F [Example 76, N-(4-fluoro-3-methylphenyl)-5-(2-((4-(hydroxymethyl)-1-(1-methyl-1H-pyrazole-5-carbonyl)piperidin-4-yl)amino)-2-oxoacetyl)-1,2,4-trimethyl-1H-pyrrole-3-carboxamide]	> 30000	< 50	–	–
Cc1cc(NC(=O)c2c(C)c(C(=O)C(=O)NC3CCc4nnn(C)c4C3)n(C)c2C)ccc1F (centres unmarked) [Example 85, N-(4-fluoro-3-methylphenyl)-1,2,4-trimethyl-5-(2-((1-methyl-4,5,6,7-tetrahydro-1H-benzo[d][1,2,3]triazol-6-yl)amino)-2-oxoacetyl)-1H-pyrrole-3-carboxamide]	> 30000	< 50	–	–
Cc1cc(NC(=O)c2c(C)c(C(=O)C(=O)N[C@H]3CC[C@@H](O)CC3)n(C)c2CC2CC2)ccc1F [Example 126, 2-(cyclopropylmethyl)-N-(4-fluoro-3-methylphenyl)-5-(2-(((1s,4s)-4-hydroxycyclohexyl)amino)-2-oxoacetyl)-1,4-dimethyl-1H-pyrrole-3-carboxamide]	> 30000	< 50	–	–
CN[C@@H]1C[C@H]2O[C@@](C)([C@@H]1OC)n1c3ccccc3c3c4c(c5c6ccccc6n2c5c31)C(=O)NC4 [staurosporine, reference compound]	–	–	100	–
CCC1(NC(=O)C(=O)c2c(C)c(C(=O)Nc3ccc(F)c(C)c3)c(C)n2C)CCN(S(C)(=O)=O)CC1 [Example 42, 5-(2-((4-ethyl-1-(methylsulfonyl)piperidin-4-yl)amino)-2-oxoacetyl)-N-(4-fluoro-3-methylphenyl)-1,2,4-trimethyl-1H-pyrrole-3-carboxamide]	> 30000	< 50	–	–
Cc1cc(NC(=O)c2c(C)c(C(=O)C(=O)NC3(C)CCCN(C(=O)Nc4ccc(F)c(F)c4)C3)n(C)c2C)ccc1F (centres unmarked) [Example 49, N-(3,4-difluorophenyl)-3-(2-(4-((4-fluoro-3-methylphenyl)carbamoyl)-1,3,5-trimethyl-1H-pyrrol-2-yl)-2-oxoacetamido)-3-methylpiperidine-1-carboxamide]	> 30000	50 to 499	–	–
Cc1cc(NC(=O)c2c(C)c(C(=O)C(=O)N[C@]3(C)CC[C@H](O)CC3)n(C)c2C2CCCC2)ccc1F [Example 133, 2-cyclopentyl-N-(4-fluoro-3-methylphenyl)-5-(2-(((1s,4s)-4-hydroxy-1-methylcyclohexyl)amino)-2-oxoacetyl)-1,4-dimethyl-1H-pyrrole-3-carboxamide]	> 30000	< 50	–	–
Cc1cc(NC(=O)c2c(C)c(C(=O)C(=O)NC3(CC(=O)O)CCCNC3)n(C)c2C)ccc1F (centres unmarked) [Example 146, 2-(3-(2-(4-((4-fluoro-3-methylphenyl)carbamoyl)-1,3,5-trimethyl-1H-pyrrol-2-yl)-2-oxoacetamido)piperidin-3-yl)acetic acid]	> 30000	> 1000	–	–
CC(=O)N1CC[C@H](NC(=O)C(=O)c2c(C)c(C(=O)Nc3ccc(F)c(C)c3)c(C)n2C)C[C@@H]1C [Example 166, 5-(2-(((2S,4S)-1-acetyl-2-methylpiperidin-4-yl)amino)-2-oxoacetyl)-N-(4-fluoro-3-methylphenyl)-1,2,4-trimethyl-1H-pyrrole-3-carboxamide]	> 30000	50 to 499	–	–
Cc1cc(NC(=O)c2c(C)c(C(=O)C(=O)N[C@H]3CN[C@H](C(=O)O)C3)n(C)c2C)ccc1F [Example 173, (2S,4R)-4-(2-(4-((4-fluoro-3-methylphenyl)carbamoyl)-1,3,5-trimethyl-1H-pyrrol-2-yl)-2-oxoacetamido)pyrrolidine-2-carboxylic acid]	> 30000	500 to 1000	–	–
Cc1cc(NC(=O)c2c(C)c(C(=O)C(=O)N[C@H]3CC[C@@H](O)CC3)n(C)c2-c2ccncc2)ccc1F [Example 163, N-(4-fluoro-3-methylphenyl)-5-(2-(((1s,4s)-4-hydroxycyclohexyl)amino)-2-oxoacetyl)-1,4-dimethyl-2-(pyridin-4-yl)-1H-pyrrole-3-carboxamide]	> 30000	> 1000	–	–
Cc1c(C(=O)Nc2ccc(F)c(S(C)(=O)=O)c2)c(C)n(C)c1C(=O)C(=O)NC(C)(C)C [Example 69, 5-(2-(tert-butylamino)-2-oxoacetyl)-N-(4-fluoro-3-(methylsulfonyl)phenyl)-1,2,4-trimethyl-1H-pyrrole-3-carboxamide]	> 30000	> 1000	–	–
Cc1cc(NC(=O)c2c(C)c(C(=O)C(=O)NC3C[C@@H]4CC(O)[C@H]3C4)n(C)c2C)ccc1F (stereo partly drawn) [Example 24, N-(4-fluoro-3-methylphenyl)-5-(2-(((1S,4R)-6-hydroxybicyclo[2.2.1]heptan-2-yl)amino)-2-oxoacetyl)-1,2,4-trimethyl-1H-pyrrole-3-carboxamide]	> 30000	< 50	–	–
Cc1cc(NC(=O)c2c(C)c(C(=O)C(=O)N[C@@H]3CC[C@@H](O)C[C@@H]3F)n(C)c2C)ccc1F [Example 14, N-(4-fluoro-3-methylphenyl)-5-(2-(((1R,2S,4R)-2-fluoro-4-hydroxycyclohexyl)amino)-2-oxoacetyl)-1,2,4-trimethyl-1H-pyrrole-3-carboxamide]	> 30000	< 50	–	–
Cc1cc(NC(=O)c2c(C)c(C(=O)C(=O)N[C@@H]3CC[C@H](O)C[C@H]3F)n(C)c2C)ccc1F [Example 15, N-(4-fluoro-3-methylphenyl)-5-(2-(((1R,2R,4S)-2-fluoro-4-hydroxycyclohexyl)amino)-2-oxoacetyl)-1,2,4-trimethyl-1H-pyrrole-3-carboxamide]	> 30000	< 50	–	–
Cc1cc(NC(=O)c2c(C)c(C(=O)C(=O)N[C@H]3CC[C@@H](O)CC3)n(C)c2-c2ccccn2)ccc1F [Example 158, N-(4-fluoro-3-methylphenyl)-5-(2-(((1s,4s)-4-hydroxycyclohexyl)amino)-2-oxoacetyl)-1,4-dimethyl-2-(pyridin-2-yl)-1H-pyrrole-3-carboxamide]	> 30000	> 1000	–	–
C=C1[C@H](CO)[C@@H](O)C[C@@H]1n1cnc2c(=O)[nH]c(N)nc21 [entecavir, reference compound]	–	–	–	0.5
